This is an account of results in ChEMBL document CHEMBL1201862, “PubChem BioAssay data set” (2004).

Test in all cases: growth of human tumour cells (NCI), 48 h
Assay [1] deals with RPMI-8226.
Assay [2] relates to PC-3.
Assay [3] deals with U-251.
Assay [4] concerns T47D.
The subject of assay [5] is IGROV-1.
Assay [6] relates to HOP-92.
Assay [7] has as its system HCC 2998.
Assay [8] deals with K562.
Assay [9] concerns SK-OV-3.
Assay [10] concerns MOLT-4.
The test system of assay [11] is BT-549.
The test system of assay [12] is UACC-62.
The test system of assay [13] is A498.
Assay [14] has as its system M14.
Assay [15] concerns HCT-15.
Assay [16] deals with SNB-75.
Assay [17] concerns OVCAR-3.
The test system of assay [18] is 786-0.
Assay [19] concerns Malme-3M.
Assay [20] has as its system NCI/ADR-RES.

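Dose response: 5 concentrations. Exposure: 48 h. Format: 96-well plates. Endpoint: linear interpolation; highest concentration if not reached. GI50 = concentration required for 50% inhibition of growth.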 The source made the active and inactive calls. No stated cut-off is given here; in the data, active = GI50 up to about 1.1 µM and inactive = higher. A value given as a limit tells only on which side of the number the result lay.

Turning to `CC(C)=CCc1cc(C2COc3cc4c(c(O)c3C2=O)C=CC(C)(C)O4)c(O)cc1O` (stereo not given), the GI50 in assay [1] is 6.43 µM (inactive); in [2], 12.4 µM (inactive); in [3], 16 µM (inactive); in [4], 4.99 µM (inactive); in assay [5], 16.2 µM (inactive); in [6], 16.7 µM (inactive). In addition, the GI50 is 18.7 µM (inactive) in assay [7]; 3.08 µM (inactive) in assay [8]; 15.7 µM (inactive) in [9]; 5.61 µM (inactive) in assay [10]; 16.3 µM (inactive) in assay [11]; 15.7 µM (inactive) in assay [12]. In addition, the GI50 was 16.5 µM (inactive) in assay [13]; 13.4 µM (inactive) in assay [14]; 13.7 µM in assay [15]; 19.1 µM (inactive) in assay [16]; 14.3 µM (inactive) in [17]; 19 µM (inactive) in assay [18]. Also, the GI50 in assay [19] is 13.4 µM (inactive); in [20] it was 22.6 µM (inactive).

As for `O=C(/C=C/c1ccccc1)CCC1C(=O)NC(=O)NC1=O`, the GI50 in [1] is 43.4 µM (inactive); in assay [2], > 100 µM (inactive); in assay [3], > 100 µM (inactive); in assay [4], > 100 µM (inactive); in [5] it was > 100 µM (inactive); in assay [6] it was > 100 µM (inactive). The GI50 in assay [7] was > 100 µM (inactive); in assay [8], 97.9 µM (inactive); in [9] it was > 100 µM (inactive); in [10], 35.7 µM (inactive); in assay [11], > 100 µM (inactive); in assay [12], > 100 µM (inactive). Moreover, the GI50 in assay [13] is > 100 µM (inactive); in assay [14], > 100 µM (inactive); in assay [15], greater than 100 µM; in [16], > 100 µM (inactive); in assay [17], > 100 µM (inactive); in assay [18], > 100 µM (inactive). For the same compound, the GI50 in assay [19] and in [20] was > 100 µM (inactive) throughout.

For `C=CCNC1=C2C[C@@H](C)C[C@@H](OC)[C@H](OC(=O)CCN(C)C)[C@H](C)/C=C(\C)[C@@H](OC(N)=O)[C@H](OC)/C=C\C=C(/C)C(=O)NC(=CC1=O)C2=O`, the GI50 in assay [1] is 1.15 µM (inactive); in assay [2], 0.0386 µM (active); in [3], 0.203 µM (active); in assay [4] it was 1.13 µM (inactive); in [5], 0.13 µM (active); in [6], 8.41 µM (inactive). Also, the GI50 in [7] is 0.0641 µM (active); in [8] it was 0.156 µM (active); in assay [9], 0.0327 µM (active); in assay [10], 1.53 µM (inactive); in assay [11], 12.9 µM (inactive); in [12], 0.0545 µM (active). Moreover, the GI50 in assay [13] was 0.297 µM (active); in [14] it was 0.0622 µM (active); in assay [15] it was 0.535 µM; in assay [16], 0.1 µM (active); in [17], 0.205 µM (active); in assay [18], 1.43 µM (inactive). The GI50 was 0.0643 µM (active) in assay [19] and 8.51 µM (inactive) in assay [20].

For `COc1c(OC(C)=O)c(OC(C)=O)cc2c1-c1ccc(SC)c(=O)cc1C(NC(C)=O)CC2` (stereo not given), the GI50 was 0.416 µM (active) in [1]; 2.14 µM (inactive) in assay [2]; 0.601 µM (active) in assay [3]; > 100 µM (inactive) in assay [4]; 0.933 µM (active) in [5]; 0.425 µM (active) in assay [6]. Besides, the GI50 is 0.454 µM (active) in assay [7]; 0.316 µM (active) in [8]; 2.91 µM (inactive) in assay [9]; 0.968 µM (active) in [10]; 0.201 µM (active) in [11]; 0.397 µM (active) in [12]. The GI50 was 4.02 µM (inactive) in assay [13]; 0.698 µM (active) in assay [14]; 9.77 µM in assay [15]; 0.299 µM (active) in assay [16]; 0.142 µM (active) in [17]; 1.69 µM (inactive) in assay [18]. The GI50 in assay [19] was 0.468 µM (active); in [20] it was > 76.6 µM (inactive).
